Measurements as given in patent publication US20220267394A1, “COMPOUNDS FOR INDUCING TISSUE FORMATION AND USES THEREOF” (HISTIDE AG, priority 2015, published 2022).

Assays:
[1] = test system: Human Hematopoeitic Stem Cells; test: Differentiation of human hematopoietic stem cells: CD34+ expression by immunostaining; format: cell-based; settings: peptides in solution in the cell culture media, 400 ng/mL, 48 hours
From the text: (§1) The following starting materials and reagents were used: • Apatite ceramics (also called apatite or ceramic in the present invention) were synthetized as described in Mater Res. 2004; 7(4): 625-630. • Titanium was obtained from Goodfellow®. • Hydrogel (poly(acrylamide-co-acrylic acid) gel) was synthetized as described in Langmuir 2011; 27(22):13635-42. • PEEK was obtained from Goodfellow®. • PET (Poly(ethylene terephthalate) was obtained from Goodfellow®. • Type-I collagen sponge was obtained from Sigma®. • Hexane was obtained from Sigma®. • 3-succinimidyl-3-maleimidopropionate (SMP) was obtained from Sigma®. • DMF was obtained from Sigma®. • PBS 1× was obtained from Gibco®. • 3-(ethoxydimethylsilyl)propylamine was obtained from Sigma®. • Ammonium persulfate was obtained from Biorad®. • N,N,N′,N′-tetramethylethylenediamine was obtained from Aldrich®. • Acrylamid was obtained from Merck®. • Acrylic acid was obtained from Merck®. • N,N-methylene-bis-acrylamide was obtained from Merck®. • NaOH was obtained from Aldrich®. • N,N,N′,N′-tetramethylethylenediamine was obtained from Aldrich®. • Dimethylaminopropyl-3-ethylcarbodiimide hydrochloride was obtained from Aldrich®. • N-hydroxysuccinimide was obtained from Aldrich®. • 2-(N-morpholino)-ethane sulfonic acid was obtained from Aldrich®. • MilliQ water: is water characterised in terms of resistivity (typically 18.2 MΩ·cm at 25° C.). • Low glucose Dulbecco's Modified Eagle Medium (DMEM) was obtained from Invitrogen® • Minimum Essential Medium Eagle without ascorbic acid (αMEM) was obtained from Invitrogen®. • All of the cell culture experiments were carried out without any serum in the medium for the first 8 hours of culture. • Osteoblast progenitors or precursor osteoblasts: MC3T3-E1 cells were obtained from ATCC®. These cells were cultured in Alpha-MEM medium supplemented with 10% fetal calf serum (FCS) and 1% penicillin/streptomycin. All cells were used at a low passage number (passage 7), were subconfluently cultured and were seeded at 10^4 cells/cm^2 for the purpose of the experiments. • Human bone marrow Mesenchymal Stem Cells (hMSCs) were obtained from Lonza®. These cells were cultured in Alpha-MEM supplemented with 10% (v/v) FBS and 1% penicillin/streptomycin and incubated in a humidified atmosphere containing 5% (v/v) CO2 at 37° C. All cells were used at a low passage number (passage 2 to 4), were subconfluently cultured and were seeded at 10^4 cells/cm^2 for the purpose of the experiments. • Human adipose Mesenchymal Stem Cells (haMSCs) were obtained from Lonza®. These cells were cultured in Alpha-MEM supplemented with 10% (v/v) FBS and 1% penicillin/streptomycin and incubated in a humidified atmosphere containing 5% (v/v) CO2 at 37° C. All cells were used at a low passage number (passage 3 to 4), were subconfluently cultured and were seeded at 10^4 cells/cm^2 for the purpose of the experiments. • Mouse Hair Follicle Stem Cells were isolated and cultured as described in Methods Mol Biol. 2010; 585:401-20. • Neuron cells are Neuronal Schwann Cells obtained from ATCC®. These cells were cultured in Dulbecco's Modified Eagle's Medium supplemented with 10% (v/v) FBS and 1% penicillin/streptomycin and incubated in a humidified atmosphere containing 5% (v/v) CO2 at 37° C. All cells were used at a low passage number (passage 6-8), were subconfluently cultured and were seeded at 10^4 cells/cm^2 for the purpose of the experiments. • Human umbilical-vein endothelial cells (HUVECs) were purchased from Promocell®. HUVECs were isolated and grown on gelatin coated culture flasks in a complete HUVEC culture medium (IMDM (Invitrogen, France) supplemented with 20% (v/v) fetal bovine serum (FBS) (PAA, France) and 0.4% (v/v) EC growth supplement/heparin kit (Promocell, France)). Cells were subcultured by using trypsin/EDTA (Invitrogen, France) and maintained in a humidified atmosphere containing 5% CO2 at 37° C. These cells were used at a passage number 3 to 5 for the purpose of the experiments. […]

hMSCs [2] = test: Loss of stemness: STRO-1 expression by immunostaining; format: cell-based, human; settings: Table 7, previously reported peptides in solution (not combined with a bioactive carrier)
Procedure, shortened: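 hMSCs cultured on plastic with GFR-binding peptides in solution (some sequences tested with a bioactive carrier), then fixed, permeabilized and immunostained for Stro-1. Stro-1-positive contact number and area quantified by thresholded image analysis, minimum 30 cells per condition.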

hMSCs [3] = test: CD-105 expression by immunostaining; format: cell-based, human; settings: Table 7, previously reported peptides in solution (not combined with a bioactive carrier)
Protocol: For this type of quantification the freeware image analysis ImageJ® software was used. The raw image was first converted to an 8-bit file, and then the unsharp mask feature was used (settings 1:0.2) to remove the image background (rolling ball radius 10). After smoothing, the resulting image, which appears similar to the original photomicrograph but with minimal background, was then converted to a binary image by setting a threshold. Threshold values were determined empirically by selecting a setting, which gave the most accurate binary image for a subset of randomly selected photomicrographs. The cell area was determined by manual delineation on raw fluorescent images. Total contact area and mean contact area per cell were calculated by “analyse particules” in ImageJ®. A minimum of 30 cells per condition were analyzed. Stro-1, CD-34+, and CD-105 expressions were determined using this procedure.
Likewise, using the method detailed in the description, the RMSD of another 27 previously reported peptide sequences have been determined (Table 7) and correlated with the expressions of STRO-1 and CD-105 in solution. […] Data were obtained with peptides in solution (i.e. not combined with a bioactive carrier).

Hair Follicle Stem Cells = test: Loss of quiescence and activation of hair follicle stem cells on 73 kPa hydrogels (Sox2, BMP-6 release); format: cell-based, mouse; settings: 73 kPa hydrogels covalently modified with peptides
From the text: as §1, with “C.” for “C. All cells were used at a low passage number (passage 3 to 4), were subconfluently cultured and were seeded at 10^4 cells/cm^2 for the purpose of the experiments. • Mouse Hair Follicle Stem Cells were isolated and cultured as described in Methods Mol Biol. 2010; 585:401-20. • Neuron cells are Neuronal Schwann Cells obtained from ATCC®. These cells were cultured in Dulbecco's Modified Eagle's Medium supplemented with 10% (v/v) FBS and 1% penicillin/streptomycin and incubated in a humidified atmosphere containing 5% (v/v) CO2 at 37° C. All cells were used at a low passage number (passage 6-8), were subconfluently cultured and were seeded at 10^4 cells/cm^2 for the purpose of the experiments. • Human umbilical-vein endothelial cells (HUVECs) were purchased from Promocell®. HUVECs were isolated and grown on gelatin coated culture flasks in a complete HUVEC culture medium (IMDM (Invitrogen, France) supplemented with 20% (v/v) fetal bovine serum (FBS) (PAA, France) and 0.4% (v/v) EC growth supplement/heparin kit (Promocell, France)). Cells were subcultured by using trypsin/EDTA (Invitrogen, France) and maintained in a humidified atmosphere containing 5% CO2 at 37° C. These cells were used at a passage number 3 to 5 for the purpose of the experiments.”

hMSCs [4] = test: Cartilage regeneration: chondrocyte differentiation of hMSCs on 14 kPa hydrogels (Sox9, Aggrecan); format: cell-based, human; settings: 14 kPa hydrogels covalently modified with peptides, 96 hours
Protocol: Total RNA was extracted by using the RNeasy total RNA kit (Qiagen®) according to the manufacturer's instructions. Purified total RNA was used as a template in order to make cDNA by a reverse transcription reaction (Gibco Brl®) with random primers (Invitrogen®). The cDNA was then used as a template for a real-time PCR amplification in the presence of SYBR green reagents (Bio-Rad®) by using a thermocycler (iCycler, Biorad®). Data were analyzed with the iCycler IQ™® software and compared by the ΔΔCt method. […]
Total RNA was extracted by using the RNeasy Mini Kit (Qiagen) and […] RNA was used for cDNA synthesis with AMV kit (Invitrogen®) according to the manufacturer' instructions. Semi-quantitative reverse transcriptase-polymerase chain reaction (RT-PCR) was performed with Taq DNA Polymerase (Invitrogen®) in a thermocycler (Bio-Rad®). […] The PCR products were analyzed on 2% agarose gels. For the Aggrecan gene, the PCR bands were densitometrically quantified by using the BioCapt software (Vilber). […]
It was then verified that these hMSCs cultured on the covalently modified hydrogels were differentiated into chondrocyte cells by analyzing the expression of the chondrocyte gene biomarker: Aggrecan. […] For that a semi-quantitative RT-PCR was performed as described in the Methods section for the Aggrecan gene and a Quantitative Real Time PCR for Sox9.

[5] = Stability of non-covalent deposit of FITC-labelled peptides on apatite ceramics or type-I collagen sponge; format: physicochemical; settings: non-covalent coating, after 3, 7 or 10 days
Protocol: Non-covalent modifications of the materials were performed in air atmosphere at room temperature. The non-covalent coating strategy consisted in using a mixture of inducing peptide (SEQ ID NO: 23; concentration of 1×10^−3M) with an apatite ceramics implant or a mixture of inducing peptide (SEQ ID NO: 22; concentration of 1×10^−3M) with a type-I collagen sponge. The non-covalently coated conventional materials were characterized by using fluorescent peptides (Here SEQ ID NO: 22 and 23 covalently bound to fluorescein isothiocyanate (FITC), FIG. 6). The results shown here in FIG. 6 were obtained from experiments performed with apatite ceramics and a type-I collagen sponge. […] Indeed, after 3, 7 or 10 days, the osteogenic peptides were still coupled to the ceramics or the type-I collagen (FIGS. 7a and b).

Substance | STRO-1 expression (%) (hMSCs [2]) | CD-105 expression (%) (hMSCs [3]) | also measured
2156 (APVKMEPLPTVYYDDMGVPTEQLSNDMVEESGSL; GFR-binding peptide) [compound 2156] |  |  | CD34+ Expression (%) [1]: 25%
2157 (EPSSVSQAAEPLPIVYYRIKPHQGQHEQLSNMIVKSSKSS; GFR-binding peptide) [compound 2157] |  |  | CD34+ Expression (%) [1]: 23%
2215 (VPQTLDPLPIIYYVGRNVRVEQLSNMVVRA; Comparative sequence) [compound 2215] | 71% | 68% | 
2230 (CCVPERLSPISVLFFDNEDNVVLRHYEDMVVDECGCR; Comparative sequence) [compound 2230] | 81% | 78% | 
2235 (APTALSAISMLYFDESGNVVLRQYEDMVVEG; Peptide reported in US20120244575, SEQ ID NO:4400) [compound 2235] | 77% | 63% | 
2238 (CCAPTELSAISVLYFDDSSNVILKKYEDMVVEACGCR; Comparative sequence) [compound 2238] | 76% | 72% | 
2240 (KPCCAPTELSAISVLYFDDSSNVILKKYEDMVVEACGCR; Peptide reported in US20050250936, SEQ ID NO:119) [compound 2240] | 73% | 69% | 
CGIPEPSSVPEKMSSLSILFFDENKNVVLKVYPNM (CGIPEPXXVPEKMSSLSILFFDENKNVVLKVYPNM; GFR-binding peptide; MOD_RES (7), (8): Xaa is C or S) [SEQ ID NO: 41] |  |  | BMP-6 release in the cell culture medium (Hair Follicle Stem Cells): decrease; Sox2 protein expression (Hair Follicle Stem Cells): increase
CKIPKASSVPTELEPLPIVYYVGRKPKVEQLSNMIVRS (CKIPKAXXVPTELEPLPIVYYVGRKPKVEQLSNMIVRS; GFR-binding peptide; MOD_RES (7), (8): Xaa is C or S) [SEQ ID NO: 36] |  |  | Sox9 protein expression (hMSCs [4]): expression of the Sox9 protein was observed
GTPGPKVPKPSSAPTQLSAISTLYLDEYDKVVLKNYQNMAVR (GTPGPKVPKPXXAPTQLSAISTLYLDEYDKVVLKNYQNMAVR; GFR-binding peptide; MOD_RES (11), (12): Xaa is C or S) [SEQ ID NO: 23] |  |  | release of peptide from apatite ceramics over time [5]: no significant release
WWFWGKVPKPSSAPTQLSAISTLYLDEYDKVVLKNYQNMVVR (WWFWGKVPKPXXAPTQLSAISTLYLDEYDKVVLKNYQNMVVR; GFR-binding peptide; MOD_RES (11), (12): Xaa is C or S) [SEQ ID NO: 22] |  |  | release of peptide from type-I collagen sponge over time [5]: no significant release
